Source: PubChem BioAssay (NCI)
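GI50 is the concentration that inhibits growth by half. At the TGI there is no net growth.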

What was measured:
Test in all cases: NCI anticancer screen, dose series, 384-well format
[1] = tested on: OVCAR-5 ovarian
[2] = tested on: NCI-H226 lung
[3] = tested on: T-47D breast
[4] = tested on: CCRF-CEM leukemia
[5] = tested on: SW-620 colon
[6] = tested on: SK-MEL-5 melanoma
[7] = tested on: ACHN renal
[8] = tested on: NCI-H460 NSCLC
[9] = tested on: MDA-MB-231 breast
[10] = tested on: SF-539 CNS
[11] = tested on: UACC-62 melanoma
[12] = tested on: MALME-3M melanoma
[13] = tested on: A549 NSCLC
[14] = tested on: K-562 leukemia
[15] = tested on: MDA-MB-435 melanoma
[16] = tested on: M14 melanoma
[17] = tested on: NCI-H522 lung
[18] = tested on: HT29 colon
[19] = tested on: MOLT-4 leukemia
[20] = tested on: OVCAR-3 ovarian
[21] = tested on: UACC-257 melanoma
[22] = tested on: EKVX NSCLC
[23] = tested on: UO-31 renal
[24] = tested on: KM12 colon
[25] = tested on: BT-549 breast
[26] = tested on: 786-0 renal
[27] = tested on: OVCAR-8 ovarian
[28] = tested on: DU-145 prostate
[29] = tested on: A498 renal
[30] = tested on: SK-OV-3 ovarian
[31] = tested on: SN12C renal
[32] = tested on: COLO 205 colon
[33] = tested on: HCC-2998 colon
[34] = tested on: HOP-62 NSCLC
[35] = tested on: IGROV1 ovarian
[36] = tested on: SK-MEL-28 melanoma
[37] = tested on: NCI-H322M lung
[38] = tested on: U251 glioblastoma
[39] = tested on: HS 578T breast
[40] = tested on: HL-60(TB) leukemia
[41] = tested on: SF-295 CNS
[42] = tested on: CAKI-1 renal
[43] = tested on: LOX IMVI melanoma
[44] = tested on: HCT-116 colon
[45] = tested on: HOP-92 NSCLC
[46] = tested on: OVCAR-4 ovarian
[47] = tested on: SNB-75 CNS
[48] = tested on: SF-268 CNS
[49] = tested on: SNB-19 CNS
[50] = tested on: NCI/ADR-RES ovarian
[51] = tested on: PC-3 prostate
[52] = tested on: RPMI-8226 leukemia
[53] = tested on: TK-10 renal
[54] = tested on: HCT-15 colon
[55] = tested on: MDA-MB-468 breast
[56] = tested on: RXF 393 renal
[57] = tested on: NCI-H23 lung
[58] = tested on: MCF7 breast

Structure (SMILES): CCN(CC)CCCCNc1ncc2cc(-c3cc(OC)cc(OC)c3)c(NC(=O)NC(C)(C)C)nc2n1
- GI50 [1]: 9.74 µM
- TGI [1]: 21.6 µM
- GI50 [2]: 0.0358 µM
- TGI [2]: 17.6 µM
- GI50 [3]: 2.82 µM
- TGI [3]: 8.19 µM
- GI50 [4]: 2.16 µM
- TGI [4]: 4.68 µM
- GI50 [5]: 11.3 µM
- TGI [5]: 23.4 µM
- GI50 [6]: 1.92 µM
- TGI [6]: 4.48 µM
- GI50 [7]: 4.17 µM
- TGI [7]: 15.8 µM
- GI50 [8]: 3.57 µM
- TGI [8]: 12.6 µM
- GI50 [9]: 9.09 µM
- TGI [9]: 21.1 µM
- GI50 [10]: 2.22 µM
- TGI [10]: 8.59 µM
- GI50 [11]: 5.33 µM
- TGI [11]: 17 µM
- GI50 [12]: 1.88 µM
- TGI [12]: 3.35 µM
- GI50 [13]: 6.04 µM
- TGI [13]: 18.5 µM
- GI50 [14]: 2.56 µM
- TGI [14]: 6.17 µM
- GI50 [15]: 10.9 µM
- TGI [15]: 23 µM
- GI50 [16]: 1.9 µM
- TGI [16]: 3.82 µM
- GI50 [17]: 10.1 µM
- TGI [17]: 21.7 µM
- GI50 [18]: 1.6 µM
- TGI [18]: 3.46 µM
- GI50 [19]: 1.64 µM
- TGI [19]: 3.26 µM
- GI50 [20]: 4.05 µM
- TGI [20]: 14.5 µM
- GI50 [21]: 1.98 µM
- TGI [21]: 3.41 µM
- GI50 [22]: 5.43 µM
- TGI [22]: 17.5 µM
- GI50 [23]: 8.38 µM
- TGI [23]: 20.7 µM
- GI50 [24]: 5.32 µM
- TGI [24]: 17.3 µM
- GI50 [25]: 2.49 µM
- TGI [25]: 12.8 µM
- GI50 [26]: 3.05 µM
- TGI [26]: 12.7 µM
- GI50 [27]: 5.32 µM
- TGI [27]: 17.5 µM
- GI50 [28]: 7.2 µM
- TGI [28]: 19.5 µM
- GI50 [29]: 2.48 µM
- TGI [29]: 15 µM
- GI50 [30]: 3.77 µM
- TGI [30]: 14 µM
- GI50 [31]: 4.16 µM
- TGI [31]: 15 µM
- GI50 [32]: 7.16 µM
- TGI [32]: 19.4 µM
- GI50 [33]: 3.01 µM
- TGI [33]: 10.5 µM
- GI50 [34]: 6.07 µM
- TGI [34]: 18.2 µM
- GI50 [35]: 3.56 µM
- TGI [35]: 16 µM
- GI50 [36]: 3.23 µM
- TGI [36]: 8.34 µM
- GI50 [37]: 6.37 µM
- TGI [37]: 19.4 µM
- GI50 [38]: 3.84 µM
- TGI [38]: 12.6 µM
- GI50 [39]: 2.28 µM
- TGI [39]: 9.13 µM
- GI50 [40]: 1.78 µM
- TGI [40]: 3.19 µM
- GI50 [41]: 12.7 µM
- TGI [41]: 25.5 µM
- GI50 [42]: 1.65 µM
- TGI [42]: 10.9 µM
- GI50 [43]: 2.46 µM
- TGI [43]: 6.58 µM
- GI50 [44]: 2.86 µM
- TGI [44]: 8.34 µM
- GI50 [45]: 7.76 µM
- TGI [45]: 20.1 µM
- GI50 [46]: 13.6 µM
- TGI [46]: 26.6 µM
- GI50 [47]: 0.613 µM
- TGI [47]: 13.8 µM
- GI50 [48]: 1.53 µM
- TGI [48]: 4.77 µM
- GI50 [49]: 13.6 µM
- TGI [49]: 26.7 µM
- GI50 [50]: 5.26 µM
- TGI [50]: 17.2 µM
- GI50 [51]: 7.34 µM
- TGI [51]: 19.6 µM
- GI50 [52]: 4.31 µM
- TGI [52]: 14.3 µM
- GI50 [53]: 10.6 µM
- TGI [53]: 22.7 µM
- GI50 [54]: 3.02 µM
- TGI [54]: 11.6 µM
- GI50 [55]: 3.81 µM
- TGI [55]: 10.1 µM
- GI50 [56]: 1.73 µM
- TGI [56]: 5.85 µM
- GI50 [57]: 10.9 µM
- TGI [57]: 22.9 µM
- GI50 [58]: 4.04 µM
- TGI [58]: 16.2 µM
